In patent US20240269086A1, “PERGULARIA TOMENTOSA SILVER NANOPARTICLES” (KING FAISAL UNIVERSITY, priority 2023, published 2024):

Legend:
Assay in all cases: Agar disk diffusion, inhibition zone diameter
Assay type in all cases: cell-based
B. cereus = settings: 25 μg/ml, Nil = No growth
Source text: (§1) The agar disk diffusion method was used to investigate the antibacterial activity of the PT-AgNPs against four bacterial strains.

S. enteritidis = settings: 6.25 μg/ml (by grid column), Nil = No growth
Source text: as §1

E. coli = settings: 25 μg/ml, Nil = No growth
Source text: as §1

S. aureus = settings: 25 μg/ml, Nil = No growth
Source text: as §1

Measured: IZD (mm)

O=C(N[C@H](CO)[C@H](O)c1ccc([N+](=O)[O-])cc1)C(Cl)Cl [Chloramphenicol]
Nil: B. cereus | S. enteritidis | E. coli | S. aureus
